Measured values: PubChem BioAssay AID1963874 (Molecular Pharmacology Branch, DTP, NCI, 2024)

Tested on: 253994-281-T-J1-PDC KRAS-mutant spheroids with HUVEC/MSC, viability
Assay: Anticancer human tumor 253994-281-T-J1-PDC patient-derived colorectal carcinoma cell line growth inhibition [KRAS2]
Settings: for IC50: curve of first compound; for viability, T/C: stronger effect = lower value
Procedure, shortened: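 KRAS-mutant tumor cells were grown as spheroids with HUVEC endothelial cells and human MSCs as stroma. Targeted agents were tested alone and with KRAS pathway inhibitors. Doses started at or near clinical Cmax, or 10 microM, descending half-log.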

[1] = second compound 0.1 µM, first compound 0.01 µM
[2] = second compound 0.1 µM, first compound 0.0316 µM
[3] = second compound 0.1 µM, first compound 0.1 µM
[4] = second compound 0.1 µM, first compound 0.316 µM
[5] = second compound 0.1 µM, first compound 1 µM
[6] = second compound 0.1 µM, first compound 3.16 µM
[7] = second compound 0.316 µM, first compound 0.01 µM
[8] = second compound 0.316 µM, first compound 0.0316 µM
[9] = second compound 0.316 µM, first compound 0.1 µM
[10] = second compound 0.316 µM, first compound 0.316 µM
[11] = second compound 0.316 µM, first compound 1 µM
[12] = second compound 0.316 µM, first compound 3.16 µM
[13] = second compound 1 µM, first compound 0.01 µM
[14] = second compound 1 µM, first compound 0.0316 µM
[15] = second compound 1 µM, first compound 0.1 µM
[16] = second compound 1 µM, first compound 0.316 µM
[17] = second compound 1 µM, first compound 1 µM
[18] = second compound 1 µM, first compound 3.16 µM
[19] = second compound 3.16 µM, first compound 0.01 µM
[20] = second compound 3.16 µM, first compound 0.0316 µM
[21] = second compound 3.16 µM, first compound 0.1 µM
[22] = second compound 3.16 µM, first compound 0.316 µM
[23] = second compound 3.16 µM, first compound 1 µM
[24] = second compound 3.16 µM, first compound 3.16 µM
[25] = second compound 10 µM, first compound 0.01 µM
[26] = second compound 10 µM, first compound 0.0316 µM
[27] = second compound 10 µM, first compound 0.1 µM
[28] = second compound 10 µM, first compound 0.316 µM
[29] = second compound 10 µM, first compound 1 µM
[30] = second compound 10 µM, first compound 3.16 µM
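Also: spheroids exposed to agents for seven days before readout.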
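For viability, T/C in this document: percent of DMSO vehicle control viability.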

Row | Compound | IC50 (second compound 0.1 µM) [nM] | IC50 (second compound 0.316 µM) [nM] | IC50 (second compound 1 µM) [nM] | IC50 (second compound 3.16 µM) [nM] | IC50 (second compound 10 µM) [nM] | viability, T/C [1] [%] | viability, T/C [2] [%] | viability, T/C [3] [%] | viability, T/C [4] [%] | viability, T/C [5] [%] | viability, T/C [6] [%] | viability, T/C [7] [%] | viability, T/C [8] [%] | viability, T/C [9] [%] | viability, T/C [14] [%] | viability, T/C [15] [%] | viability, T/C [20] [%] | viability, T/C [21] [%] | viability, T/C [26] [%] | viability, T/C [27] [%] | other results
1 | CC(=O)OC12COC1CC(O)C1(C)C(=O)C(O)C3=C(C)C(OC(=O)C(O)C(NC(=O)OC(C)(C)C)c4ccccc4)CC(O)(C(OC(=O)c4ccccc4)C21)C3(C)C (stereo not given) + CC1OCC2(CCN(c3cnc(Sc4ccnc(N)c4Cl)c(N)n3)CC2)C1N | 20.4 | < 10 | 27.1 | < 10 | < 10 | 68.7 | 39.5 | 26.3 | 23.2 | 27.5 | 21.8 | 48.8 | 29.2 | 18.4 | 42 | 31.2 | 18 | 11.9 | 14.4 | 13.3 | viability, T/C [10]: 19.2%; viability, T/C [11]: 20.3%; viability, T/C [12]: 18.1%; viability, T/C [13]: 92%; viability, T/C [16]: 24%; viability, T/C [17]: 21%; viability, T/C [18]: 21.7%; viability, T/C [19]: 19.8%; viability, T/C [22]: 11.7%; viability, T/C [23]: 14.8%; viability, T/C [24]: 12.5%; viability, T/C [25]: 20%; viability, T/C [28]: 12.8%; viability, T/C [29]: 10.5%; viability, T/C [30]: 11.8%
2 | CN(C)C/C=C/C(=O)Nc1cc2c(Nc3ccc(F)c(Cl)c3)ncnc2cc1O[C@H]1CCOC1 + CC1OCC2(CCN(c3cnc(Sc4ccnc(N)c4Cl)c(N)n3)CC2)C1N | > 100 | 86.5 | > 100 | < 0.316 | > 100 | 79.3 | 81.4 | 58.5 | – | – | – | 70.6 | 74 | 47 | 86.2 | 83.5 | 37.6 | 31.4 | 83.7 | 65.7 | viability, T/C (second compound 0.1 µM, first compound 0.000316 µM): 85.5%; viability, T/C (second compound 0.1 µM, first compound 0.001 µM): 74.8%; viability, T/C (second compound 0.1 µM, first compound 0.00316 µM): 91.2%; viability, T/C (second compound 0.316 µM, first compound 0.000316 µM): 57.1%; viability, T/C (second compound 0.316 µM, first compound 0.001 µM): 72.1%; viability, T/C (second compound 0.316 µM, first compound 0.00316 µM): 79.6%; viability, T/C (second compound 1 µM, first compound 0.000316 µM): 79%; viability, T/C (second compound 1 µM, first compound 0.001 µM): 97%; viability, T/C (second compound 1 µM, first compound 0.00316 µM): 79.5%; viability, T/C [13]: 86.3%; viability, T/C (second compound 3.16 µM, first compound 0.000316 µM): 31.1%; viability, T/C (second compound 3.16 µM, first compound 0.001 µM): 37.2%; viability, T/C (second compound 3.16 µM, first compound 0.00316 µM): 37.3%; viability, T/C [19]: 42.9%; viability, T/C (second compound 10 µM, first compound 0.000316 µM): 75.4%; viability, T/C (second compound 10 µM, first compound 0.001 µM): 102%; viability, T/C (second compound 10 µM, first compound 0.00316 µM): 78.1%; viability, T/C [25]: 106%
3 | O=C(c1cc(Cc2n[nH]c(=O)c3ccccc23)ccc1F)N1CCN(C(=O)C2CC2)CC1 + CC1OCC2(CCN(c3cnc(Sc4ccnc(N)c4Cl)c(N)n3)CC2)C1N | > 10000 | > 10000 | > 10000 | < 31.6 | 655 | – | 99 | 81.4 | 93.7 | 90.7 | 84.2 | – | 79.8 | 65.7 | 93.3 | 94.1 | 52.8 | 46.2 | 47.2 | 45.5 | viability, T/C (second compound 0.1 µM, first compound 10 µM): 95.5%; viability, T/C [10]: 62.9%; viability, T/C [11]: 120%; viability, T/C [12]: 84.6%; viability, T/C (second compound 0.316 µM, first compound 10 µM): 79.5%; viability, T/C [16]: 93.2%; viability, T/C [17]: 81%; viability, T/C [18]: 80.2%; viability, T/C (second compound 1 µM, first compound 10 µM): 90.7%; viability, T/C [22]: 46.5%; viability, T/C [23]: 48.4%; viability, T/C [24]: 45.6%; viability, T/C (second compound 3.16 µM, first compound 10 µM): 57.6%; viability, T/C [28]: 115%; viability, T/C [29]: 38.8%; viability, T/C [30]: 31.6%; viability, T/C (second compound 10 µM, first compound 10 µM): 30.4%
